From US5641861A, “μopioid receptor ligands: agonists and antagonists” (Torrey Pines Institute For Molecular Studies, priority 1995, dated 1997)
Where no end group is shown, it is not given here. [ ]: non-standard residue; d: D form.

Assays:
[1] = tested on: MU RECEPTOR; test: Agonist or antagonist activity by adenylyl cyclase assay or GPI assay (not specified which); conditions: Table 13
[2] = tested on: guinea-pig ileum; conditions: inhibition of electrically stimulated contraction; read-out: GPI IC50
Excerpt: The GPI assay (Kosterlitz et al., Br. J. Pharam. 39:398-418 (1970), which is incorporated herein by reference), is one of the most widely used assays for the determination of opioid activities in vitro. The assay is based on the ability of opioid agonists to inhibit electrically stimulated contraction in tissue. GPI is not a "clean" assay insofar as the ileum preparation contains both μ and κ receptors. However, μ receptor mediated-effects in the GPI can be distinguished from κ receptor mediated effects by determining Ke values for naloxone as the antagonist (μ effects: Ke ~1-3 nM); κ effects: Ke ~20-30 nM) or by using specific μ or κ antagonists.
The guinea pigs were killed by decapitation. […] Isometric contractions were measured via strain gauge force transducers and recorded on stripchart recorders.
In all bioassays, a dose-response curve with a reference compound (e.g., [D-Ala^2, Leu^5 ]enkephelinamide or U50,488) is used in each preparation. […] Ke values for naloxone or other antagonists are determined from the ratio of IC50 values (DR) obtained with the peptide under investigation in the presence and absence of a fixed concentration of the antagonist, using the formula Ke =a/(DR-1) ("a"=fixed concentration). A log dose-response curve is obtained with [Leu^5 ]enkephalin for each ileum and vas deferens preparation and the IC50 value is determined. […]

[3] = tested on: mouse vas deferens; test: Mouse vas deferens (MVD) bioassay; conditions: inhibition of electrically stimulated contraction
Excerpt: The mouse vas deferens (MVD) bioassay was also used to determine whether a peptide is an opioid agonist or an opiod antagonist. Again, such information is not available from the radioreceptor binding assay results.
The MVD assay (Henderson et al., Br. J. Pharma. 12:119-127 (1957), which is incorporated herein by reference) is another one of the most widely used assays for the determination of opioid activities in vitro. This assay, like the GPI assay, is based on the ability of opioid agonists to inhibit electrically stimulated contractions in tissue. The MVD assay is also not "clean" in that, in addition to the predominant δ receptor, the μ and κ receptors are also present. […]
Mouse vasa deferentia were dissected and placed in Krebs solution. The responses of the longitudinal muscle were recorded under a basal tension of 0.5 g and excited by pulses of 1 millisecond duration.
In all bioassays, a dose-response curve with a reference compound (e.g., [D-Ala^2, Leu^5 ]enkephelinamide or U50,488) is used in each preparation. […] Potencies of new compounds to be tested are determined relative to that of the reference compound, and their IC50 values are normalized based on an average IC50 value which has been obtained for the reference compound by performance of many determinations with a large number of preparations. […]

[4] = target: T1, μ receptor (Homo sapiens, UniProt P35372); test: Adenylyl cyclase assay, SH-SY5Y neuroblastoma cell membranes; assay type: biochemical; conditions: AGONISTS section; cyclic AMP level, agonist alone at 100 μM
T1 construct: An adenylyl cyclase assay using human SH-SY5Y neuroblastoma cell line membranes; endogenous in cells; host or cells: human SH-SY5Y neuroblastoma cells, retinoic-acid differentiated; membranes
T1 sequence (P35372 whole entry): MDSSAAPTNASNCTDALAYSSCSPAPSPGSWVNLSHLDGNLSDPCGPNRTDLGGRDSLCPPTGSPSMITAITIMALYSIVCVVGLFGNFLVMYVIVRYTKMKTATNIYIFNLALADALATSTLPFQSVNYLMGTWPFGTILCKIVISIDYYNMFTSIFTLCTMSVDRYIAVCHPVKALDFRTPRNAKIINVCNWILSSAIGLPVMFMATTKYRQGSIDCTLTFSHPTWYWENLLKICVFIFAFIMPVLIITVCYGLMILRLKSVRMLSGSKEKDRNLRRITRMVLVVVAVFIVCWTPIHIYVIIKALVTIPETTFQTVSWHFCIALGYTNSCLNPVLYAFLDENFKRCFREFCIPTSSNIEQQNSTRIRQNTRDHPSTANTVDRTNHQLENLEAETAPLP

[5] = target: T2, δ receptors (Rattus norvegicus, UniProt P33533); test: Radioreceptor assay selective for δ receptors ([3H]-naltrindole); assay type: binding; conditions: ratio of IC50 values
T2 construct: Radioreceptor assays selective for δ receptors were performed using rat brain homogenates; tissue Harlan Bioproducts for Science; host or cells: rat brain crude membrane homogenate
T2 sequence (P33533 whole entry): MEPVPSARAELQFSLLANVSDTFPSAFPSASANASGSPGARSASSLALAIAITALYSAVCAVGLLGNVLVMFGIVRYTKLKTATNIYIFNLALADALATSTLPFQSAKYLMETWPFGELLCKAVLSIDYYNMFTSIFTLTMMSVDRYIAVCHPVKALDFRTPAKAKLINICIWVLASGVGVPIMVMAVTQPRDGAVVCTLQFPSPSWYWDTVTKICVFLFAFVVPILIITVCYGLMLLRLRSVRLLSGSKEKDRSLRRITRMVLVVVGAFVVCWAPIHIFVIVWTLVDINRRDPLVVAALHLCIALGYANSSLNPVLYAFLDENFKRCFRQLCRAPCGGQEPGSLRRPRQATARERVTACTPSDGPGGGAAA
Method: Radioreceptor assays selective for δ receptors were performed using rat brain homogenates as above and [^3 H]-naltrindole (0.5 nM, specific activity 34.7 Ci/mmol) as radioligand in Tris buffer containing 100 μM phenylmethylsulfonyl fluoride (PMSF), 5 mMMgCl2 and 1 mg/ml bovine serum albumin (BSA), pH 7.4. Samples were incubated for 2.5 hr. Standard curves were prepared using 0.10-3200 nM [^3 H]-D-Pen2, Pen5 ]-enkephalin ([^3 H]-DPDPE).

[6] = target: T3, κ receptors (Cavia porcellus, UniProt P41144); test: Radioreceptor assay selective for κ receptors ([3H]-U69,593); assay type: binding, guinea pig; conditions: ratio of IC50 values
T3 construct: tissue homogenates prepared from guinea pig brains (cortex and cerebellum); tissue Harlan Bioproducts for Science; host or cells: guinea pig brain (cortex and cerebellum) homogenate
T3 sequence (P41144 whole entry): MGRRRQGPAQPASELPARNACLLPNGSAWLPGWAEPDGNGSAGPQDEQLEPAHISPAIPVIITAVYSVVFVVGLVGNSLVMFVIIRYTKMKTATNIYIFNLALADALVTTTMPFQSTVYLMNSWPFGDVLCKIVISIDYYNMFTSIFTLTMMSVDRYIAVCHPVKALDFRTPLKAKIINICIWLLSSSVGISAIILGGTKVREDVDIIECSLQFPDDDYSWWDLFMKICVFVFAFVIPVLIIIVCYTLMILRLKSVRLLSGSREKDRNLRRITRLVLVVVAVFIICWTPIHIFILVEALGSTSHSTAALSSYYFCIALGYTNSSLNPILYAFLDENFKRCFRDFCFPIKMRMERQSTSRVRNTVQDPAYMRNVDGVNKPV
Method: Assays selective for κ receptors were carried out using [^3 H]-U69,593 (3 nM, specific activity 62 Ci/mmol) as the radioligand and tissue homogenates prepared from guinea pig brains (cortex and cerebellum) using Tris buffer containing 100 μM PMSF, 5 mMMgCl2 and 1 mg/ml BSA, pH 7.4. Sample tubes were incubated for 2.5 hr.

Compound: (D)Ile--(D)Met--(D)Thr--(D)Trp--Gly--(D)Pro--NH2 ([dI][dM][dT][dW]G[dP]-NH2; N-terminus assumed; SMILES CC[C@@H](C)[C@@H](N)C(=O)N[C@H](CCSC)C(=O)N[C@@H](C(=O)N[C@H](Cc1c[nH]c2ccccc12)C(=O)NCC(=O)N1CCC[C@@H]1C(N)=O)[C@H](C)O) [SEQ ID NO. 130]
- AGONIST OR ANTAGONIST [1]: Agonist

Compound: WWPKHK-NH2 [SEQ ID NO. 50]
- IC50 [2]: 270 ± 19 nM
- IC50 [3]: 45 ± 7 nM

Compound: C[C@@H](NC(=O)[C@@H](N)Cc1ccc(O)cc1)C(=O)NCC(=O)N(C)[C@@H](Cc1ccccc1)C(=O)NCCO [DAMGO, [D-Ala^2, MePhe^4, Gly-ol^5]enkephalin]
- % Basal Control [4]: 34 ± 6%

Compound: Trp--Trp--Pro--Arg--NH2 [SEQ ID NO. 69]
- δ/μ [5]: 1,740
- κ/μ [6]: 2,060
